The results in this text go back to PubChem BioAssay (NCI).

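Dose response: 5 concentrations. Exposure: 48 h. Format: 96-well plates. Endpoint: linear interpolation; highest concentration if not reached. GI50 = concentration required for 50% inhibition of growth. TGI denotes the concentration required for complete inhibition of growth.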

Test systems include NCI-H23 lung; SF-539 CNS; LOX IMVI melanoma; CAKI-1 renal; SF-295 CNS; HCT-15 colon; TK-10 renal; NCI/ADR-RES ovarian; HCC-2998 colon; SW-620 colon.
What all share (test): inhibition of tumour cell growth, NCI panel, 48 h

Turning to `Cc1nccn1S(=O)(=O)c1ccc(Cl)cc1`, the TGI with NCI-H23 lung, with SF-539 CNS, in the assay with LOX IMVI melanoma, in the assay on CAKI-1 renal, with SF-295 CNS and in the assay on HCT-15 colon was above 100 µM each time. For the same compound, the TGI is above 100 µM in the assay on TK-10 renal, above 100 µM in the assay on NCI/ADR-RES ovarian, 88 µM with HCC-2998 colon and above 100 µM in the assay with SW-620 colon.
For `Nc1ccc(C(=O)O)cc1`, the TGI was above 100 µM in the assay with NCI-H23 lung; above 100 µM in the assay on SF-539 CNS; above 100 µM with LOX IMVI melanoma; above 100 µM with CAKI-1 renal; above 100 µM in the assay on SF-295 CNS; 52 µM in the assay with HCT-15 colon. In addition, the TGI with TK-10 renal, in the assay with NCI/ADR-RES ovarian, in the assay with HCC-2998 colon and with SW-620 colon was above 100 µM throughout.
Regarding `CCCCOc1ccc(S(=O)(=O)/N=C(\NO)Nc2ccc(Cl)cc2)cc1`, the TGI worked out at 29.4 µM with NCI-H23 lung; 37 µM in the assay on SF-539 CNS; 31 µM in the assay on LOX IMVI melanoma; 23.2 µM with CAKI-1 renal; 30.8 µM in the assay on SF-295 CNS; 30.4 µM in the assay on HCT-15 colon. Besides, the TGI with TK-10 renal was found to be 28.7 µM; in the assay with NCI/ADR-RES ovarian, 33.1 µM; in the assay with HCC-2998 colon, 28.9 µM; in the assay on SW-620 colon, 40.3 µM.
For the compound `CCN(CCC#N)C(=O)Nc1ccccc1`, the TGI in the assay with NCI-H23 lung, with SF-539 CNS, in the assay with LOX IMVI melanoma, with CAKI-1 renal, in the assay with SF-295 CNS and with HCT-15 colon was above 100 µM each time. Moreover, the TGI with TK-10 renal, with NCI/ADR-RES ovarian, in the assay on HCC-2998 colon and with SW-620 colon was above 100 µM throughout.
As for `CC(C)(C)CC(C)(C)NCC(O)COc1ccc(C(C)(C)c2ccc(OCC(O)CNC(C)(C)CC(C)(C)C)cc2)cc1` (stereo not given), the TGI was found to be 3.14 µM in the assay on NCI-H23 lung; 3.33 µM in the assay with SF-539 CNS; 1.35 µM with LOX IMVI melanoma; 3.13 µM in the assay on CAKI-1 renal; 3.21 µM in the assay on SF-295 CNS; 2.69 µM with HCT-15 colon. Also, the TGI in the assay on TK-10 renal was 3.32 µM; in the assay on NCI/ADR-RES ovarian, 2.84 µM; with HCC-2998 colon, 1.21 µM; in the assay with SW-620 colon it was 0.463 µM. Further, the GI50 with TK-10 renal is 1.75 µM; in the assay with NCI/ADR-RES ovarian it was 1.41 µM.
As for `O=c1[nH]c2ccc(C(F)(F)F)cc2nc1C(F)(F)F`, the TGI with NCI-H23 lung was 46.9 µM; in the assay on SF-539 CNS, 64.2 µM; in the assay with LOX IMVI melanoma, 60.8 µM; with CAKI-1 renal, 82.1 µM; in the assay with SF-295 CNS it was above 100 µM; in the assay with HCT-15 colon, above 100 µM. Further, the TGI is above 100 µM with TK-10 renal, 70.7 µM in the assay on NCI/ADR-RES ovarian and above 100 µM in the assay on HCC-2998 colon.
Consider `CC(C)=CCC[C@@H](C)C1=C(O)C(Nc2ccccc2)=C(C)C(=O)C1=O`, for which the TGI with NCI-H23 lung was 98.7 µM; in the assay with SF-539 CNS it was 84.8 µM; in the assay with LOX IMVI melanoma, above 100 µM; in the assay with CAKI-1 renal, 56.8 µM; in the assay with SF-295 CNS it was 32.4 µM; with HCT-15 colon, above 78.7 µM. Besides, the TGI in the assay with TK-10 renal is above 100 µM; in the assay with NCI/ADR-RES ovarian, 45.6 µM; in the assay with HCC-2998 colon, above 100 µM; with SW-620 colon it was above 100 µM.
As for `O=S(=O)(O)c1cc(N=[N+]([O-])c2ccc(N=Nc3ccccc3)cc2S(=O)(=O)O)ccc1/C=C/c1ccc(N=[N+]([O-])c2ccc(N=Nc3ccccc3)cc2S(=O)(=O)O)cc1S(=O)(=O)O`, the TGI was above 100 µM with NCI-H23 lung; above 31.6 µM in the assay on SF-539 CNS; above 100 µM in the assay with LOX IMVI melanoma; above 100 µM with SF-295 CNS; above 100 µM in the assay with HCT-15 colon; above 100 µM in the assay with NCI/ADR-RES ovarian. Moreover, the TGI in the assay on HCC-2998 colon and in the assay on SW-620 colon was above 100 µM throughout.
As for `Cc1cc(O)c(C(C)C)cc1C(=S)Nc1ccc(Cl)cc1`, the TGI is 17.7 µM in the assay on NCI-H23 lung; 29.6 µM in the assay with SF-539 CNS; 24 µM in the assay with LOX IMVI melanoma; 27.9 µM in the assay on CAKI-1 renal; 28.3 µM in the assay with SF-295 CNS; 25.1 µM with HCT-15 colon. For the same compound, the figures for the TGI in the assay on NCI/ADR-RES ovarian, in the assay on HCC-2998 colon and in the assay with SW-620 colon were 34.5 µM, 33 µM and 33.9 µM, respectively.
Regarding `COc1cccc(N(CN2C(=O)CCC2OC)C(C)=O)c1` (stereo not given), the TGI in the assay with NCI-H23 lung, in the assay with SF-539 CNS, in the assay on LOX IMVI melanoma, with CAKI-1 renal, in the assay with SF-295 CNS and with HCT-15 colon was above 100 µM in each case. Besides, the TGI with TK-10 renal, with NCI/ADR-RES ovarian, in the assay on HCC-2998 colon and with SW-620 colon was above 100 µM in each case.
On to `N=C(N)c1ccc(-c2ccc(-c3ccc(Cl)cc3Cl)s2)nc1`, for which the GI50 is 1.65 µM in the assay with NCI-H23 lung; 1.66 µM with SF-539 CNS; 1.71 µM with CAKI-1 renal; 1.74 µM with SF-295 CNS; 1.88 µM with NCI/ADR-RES ovarian; 1.74 µM in the assay with HCC-2998 colon. The TGI with NCI-H23 lung was found to be 3.19 µM; with SF-539 CNS, 3.06 µM; with CAKI-1 renal, 3.1 µM; in the assay with SF-295 CNS it was 3.24 µM; with NCI/ADR-RES ovarian, 3.64 µM; with HCC-2998 colon, 3.17 µM.
Regarding `c1ccc(OCc2nnc(CCCCCCCCc3nnc(COc4ccccc4)o3)o2)cc1`, the TGI in the assay on NCI-H23 lung, in the assay on SF-539 CNS, in the assay on LOX IMVI melanoma, in the assay on CAKI-1 renal, with SF-295 CNS and in the assay on HCT-15 colon was above 100 µM in each case. In addition, the TGI in the assay with TK-10 renal, in the assay on NCI/ADR-RES ovarian, in the assay on HCC-2998 colon and in the assay on SW-620 colon was above 100 µM each time.
With `CCCCCCCCCCCCCCCCCCNc1nc(=O)n(C2CC(OP(=O)(O)OCC3OC(n4cc(F)c(=O)[nH]c4=O)CC3O)C(CO)O2)cc1F` (stereo not given), the TGI with NCI-H23 lung is above 100 µM; in the assay with SF-539 CNS, 43.9 µM; in the assay on LOX IMVI melanoma it was above 100 µM; in the assay on CAKI-1 renal, above 100 µM; in the assay with SF-295 CNS, 38.5 µM; in the assay on HCT-15 colon, above 100 µM. For the same compound, the TGI with TK-10 renal was above 100 µM; in the assay with NCI/ADR-RES ovarian, above 100 µM; in the assay on HCC-2998 colon it was 52.9 µM; in the assay on SW-620 colon, above 100 µM.
